From ChEMBL document CHEMBL5625205, “3-Methoxy-2-phenylimidazo[1,2-b]pyridazines highly active against Mycobacterium tuberculosis and Mycobacterium marinum” (Eur J Med Chem, 2023) come the findings set out here.

The subject of series [1] is Mycobacterium tuberculosis. The series can be described thus: Antimycobacterial activity against Mycobacterium tuberculosis H37Ra assessed as inhibition of bacterial growth measured for 5 days by luminometer. The class given is functional. As to conditions: 120 h, time 5 day.
A further series relates to Mycobacterium marinum. The series can be described thus: Antimycobacterial activity against Mycobacterium marinum assessed as inhibition of bacterial growth measured for 5 days by luminometer. The class given is functional. As to conditions: 120 h, time 5 day.
The nature of series [2]: Octanol-water distribution coefficient, logD of the compound at pH 7.4 by HPLC analysis. The class given is physicochemical.
Series [3] in a line: Kinetic solubility of compound in DMSO at pH 2 incubated for 30 mins by laser nephelometry. The following applies: read-out: Kinetic_solubility. It counts as physicochemical.
Series [4] in a line: Kinetic solubility of compound in DMSO at pH 6.5 incubated for 30 mins by laser nephelometry. The class given is physicochemical. The following applies: read-out: Kinetic_solubility.
Series [5] is described as follows: Metabolic stability in mouse liver microsomes assessed as half life incubated for 60 mins in presence of NADPH. The class given is ADME, Microsome. For orientation: Liver microsomes are vesicles of endoplasmic reticulum, rich in cytochrome P450 enzymes.
Series [6] can be described thus: Metabolic stability in mouse liver microsomes assessed as intrinsic clearance incubated for 60 mins in presence of NADPH. As to conditions: read-out: CLH. The class given is ADME, Microsome.
Series [7] concerns Mycobacterium tuberculosis. The series can be described thus: Antimycobacterial activity against Mycobacterium tuberculosis H37Ra infected in mouse assessed as reduction in relative light unit in lung at 30 to 300 mg/kg,po administrated once daily for 5 days. It counts as functional, organism-based. The following applies: dose 30-300 mg/kg, time 5.0 day.
Series [8] has as its system Mycobacterium tuberculosis. The series can be described thus: Antimycobacterial activity against Mycobacterium tuberculosis H37Ra infected in mouse assessed as reduction in relative light unit in lung at 300 mg/kg,po administrated once daily for 5 days. It counts as functional, organism-based. As to conditions: time 5.0 day.
A further series deals with A549. Description: Cytotoxicity against human A549 cells incubated for 48 hrs by MTT assay. As to conditions: A549, 48 h. The class given is functional, cell-based.
Series [9] concerns Mycobacterium tuberculosis. Description: Antimycobacterial activity against Mycobacterium tuberculosis H37Ra infected in mouse assessed as reduction in relative light unit in lung at 10 mg/kg,po administrated once daily for 5 days. It counts as functional, organism-based. The following applies: time 5.0 day.

Values after ≈ are worked out from the molar mass of the structure shown. Active and inactive are the calls of the source. No cut-off for these calls is given here.

A word on the MIC90: it is an inhibitory concentration at the 90% level, which refers to growth in some studies and to a panel of isolates in others. For orientation: logD means lipophilicity at a set pH, counting ionised and neutral species. A higher logD goes with a more lipophilic compound. The half-life is the time in which the quantity being followed falls by half. Regarding `COc1c(-c2ccc(F)cc2F)nc2ccc(N(C)Cc3ccccc3)nn12`, the MIC90 (in series [1]; in the series on Mycobacterium marinum) was 0.64 µM (≈ 0.243 µg/mL) throughout. The logD in series [2] came to 4.6. Besides, the solubility kinetic at 0.5 h in series [3] was found to be 25 µg/mL (≈ 65.7 µM); in [4] it was 1.6 µg/mL (≈ 4.21 µM). The half-life in series [5] amounted to 8 min. Also, in [6], the microsomal CLint is 215 µL/min/mg. The result in series [7] was inactive.
For `COc1cccc(CSc2ccc3nc(-c4ccc(F)cc4)c(OC)n3n2)c1`, the MIC90 (in [1]; in the series with Mycobacterium marinum) was 0.63 µM (≈ 0.249 µg/mL) throughout. In [2], this compound registered a logD of 4.9. Moreover, the solubility kinetic at 0.5 h in [3] was 1.6 µg/mL (≈ 4.05 µM); in series [4], below 1.6 µg/mL. Moreover, the half-life in series [5] is below 2 min. In addition, the microsomal CLint in series [6] is above 866 µL/min/mg. Also, the result in [7] was inactive.
For orientation: IC50 means the concentration at which inhibition is half-maximal. A low value points to inhibition by little substance. As to `COc1cccc(CSc2ccc3nc(-c4ccccc4)c(OC)n3n2)c1`, the values for the MIC90 (in series [1]; in the series on Mycobacterium marinum) were at most 1.66 µM and 2.65 µM (≈ 1 µg/mL), respectively. In series [2], the logD stood at 4.8. Moreover, the solubility kinetic at 0.5 h in series [3] was 3.1 µg/mL (≈ 8.21 µM); in series [4], below 1.6 µg/mL. In [5], the half-life was below 2 min. Further, the microsomal CLint in series [6] is above 866 µL/min/mg. In [8], the result was inactive. The compound further registered an IC50 in the series on A549 above 260 µM.
Turning to `CO[C@H]1/C=C/O[C@@]2(C)Oc3c(C)c(O)c4c(O)c(c(/C=N/N5CCN(C)CC5)c(O)c4c3C2=O)NC(=O)/C(C)=C\C=C\[C@H](C)[C@H](O)[C@@H](C)[C@@H](O)[C@@H](C)[C@H](OC(C)=O)[C@@H]1C` [RIFAMPIN], the MIC90 in series [1] stood at 0.073 µM (≈ 0.0601 µg/mL); in the series on Mycobacterium marinum it was 0.24 µM (≈ 0.198 µg/mL). Also, the result in series [9] was Active.
Regarding `COc1c(-c2ccccc2F)nc2ccc(N(C)Cc3ccccc3)nn12`, the MIC90 (in series [1]; in the series on Mycobacterium marinum) was 0.69 µM (≈ 0.25 µg/mL) throughout. The compound also showed a logD in series [2] of 4.5. The solubility kinetic at 0.5 h in series [3] is 25 µg/mL (≈ 69 µM); in series [4] it was below 1.6 µg/mL. Moreover, in series [5], the half-life stood at 4 min. Also, in [6], the microsomal CLint was 405 µL/min/mg. Further, the result in series [7] was inactive.
